For test [1], the system named is P. falciparum line M25 (chloroquinine-sensitive). The experiment in a line: In vitro activity on established line M25 (48 h culture). Type of test: cell-based. Conditions: Plasmodium falciparum, two experiments, one line each. On the procedure:
(§1) The proliferation of the parasites is measured by incorporation of ^3 [H] hypoxanthine applied to the cultures 16 hours before the end of the culture. The radioactive hypoxanthine is absorbed by the developing parasites. The quantity absorbed is measured by a Beta counter in counts per minute.
(§2) Three P. faciparum lines M25, chloroquinine-sensitive, and FCM 6 and FCM 17, chloroquinine-resistant, were cultured at a parasitemia rate approaching 1%, at the trophozoite stage, for a period of 48 hours.

A further test relates to P. berghei, N strain. Description: In vivo test in mice infected with P. berghei, N strain. Conditions: for Mortality: female SWISS mice, 4 subcutaneous injections D0-D2. On the procedure: Methodology: the laboratory mice can be infected with various strains of rodent Plasmodium. Female SWISS mice (about 30 g) (5 per group) were inoculated on D0 with […] P. berghei parasites, chloroquinine-sensitive, lethal strain. The mice were treated between D0 and D2 using 4 subcutaneous injections of chloroquinine or of compound SN1, with a total dose of 1 or 10 mg/kg of weight. The parasitemia and mortality were monitored from D3, for at least 40 days.
The compound SN1 and its salt, SN1 ditartrate, were tested.

Test [2] deals with field strains (Francevilloises strains). Description: In vitro inhibition of parasite proliferation (3[H] hypoxanthine incorporation), field strains. Type of test: cell-based, Plasmodium falciparum. On the procedure: As mentioned above, the in vitro activity of organometallic complexes of the invention was measured on field strains.
as §1

For test [3], the system named is P. falciparum line FCM 17 (chloroquinine-resistant). The experiment in a line: microbe, parasite or virus in culture. Type of test: cell-based. Conditions: Plasmodium falciparum, FCM17, chloroquinine-resistant; two experiments, one line each. On the procedure:
as §1, §2

The test system of test [4] is P. falciparum line FCM 6 (chloroquinine-resistant). The experiment in a line: microbe, parasite or virus in culture. Type of test: cell-based. Conditions: Plasmodium falciparum, FCM6, chloroquinine-resistant; two experiments, one line each. Here is the method: as §1, §2
A further test relates to P. yoelii, strain NS. The experiment in a line: In vivo test in mice infected with chloroquinine-resistant P. yoelii, strain NS. Conditions: 10 mg/kg.

Values after ≈ are worked out from the molar mass of the structure shown. Where two headings read alike, the source gives them in different places.

For `CCN(CC)CCCC(C)Nc1ccnc2cc(Cl)ccc12` (centres unmarked) [Chloroquinine], the IC50 was 0.069 µg/mL (≈ 0.216 µM) in test [1]; 200 nM in test [2] (Plasmodium falciparum, Strain No. 17); > 1000 nM in test [2] (Plasmodium falciparum, Strain No. 265); 980 nM in test [2] (Plasmodium falciparum, Strain No. 309); > 1000 nM in test [2] (Plasmodium falciparum, Strain No. 823); 190 nM in test [2] (Plasmodium falciparum, Strain No. 917). For the same compound, the IC50 in test [2] (Plasmodium falciparum, Strain No. 926) is > 1000 nM; in test [2] (Plasmodium falciparum, Strain No. 935) it was > 1000 nM; in test [2] (Plasmodium falciparum, read-out: IC50 (range over strains), Francevilloises strains, 7 strains tested), 190 to 1000 nM; in test [2] (Plasmodium falciparum, read-out: ID 50, Strain No. 17), 2000 nM; in test [2] (Plasmodium falciparum, read-out: ID 50, Strain No. 265) it was > 10000 nM; in test [2] (Plasmodium falciparum, read-out: ID 50, Strain No. 309) it was 9800 nM. Also, the IC50 is > 10000 nM in test [2] (Plasmodium falciparum, read-out: ID 50, Strain No. 823); 1900 nM in test [2] (Plasmodium falciparum, read-out: ID 50, Strain No. 917); > 10000 nM in test [2] (Plasmodium falciparum, read-out: ID 50, Strain No. 926); > 10000 nM in test [2] (Plasmodium falciparum, read-out: ID 50, Strain No. 935); 0.555 µg/mL (≈ 1.74 µM) in test [3]; 0.492 µg/mL (≈ 1.54 µM) in test [4]. The Mortality in the test on P. berghei, N strain (Exp 1, total dose 1 mg/kg) is reported as 5/5; with P. berghei, N strain (Exp 1, total dose 10 mg/kg), 5/5; with P. berghei, N strain (Exp 2, total dose 1 mg/kg), 5/5; with P. berghei, N strain (Exp 2, total dose 10 mg/kg) it was 5/5. Besides, the “chloroquinine-resistance of the strains” value in test [2] (in words, Francevilloises strains) is “high chloroquinine-resistance”. Besides, in the test with P. yoelii, strain NS, the “parasites detected / parasitemia” value is “high parasitemia”.
Turning to `CN(C)Cc1ccc[c-]1CNc1ccnc2cc(Cl)ccc12.[Fe+2].c1cc[cH-]c1` (centres unmarked) [SN1], the Mortality with P. berghei, N strain (Exp 1, total dose 1 mg/kg) is on record as 5/5; in the test on P. berghei, N strain (Exp 1, total dose 10 mg/kg), 1/5; with P. berghei, N strain (Exp 2, total dose 1 mg/kg), 5/5; in the test with P. berghei, N strain (Exp 2, total dose 10 mg/kg), 0/5. In the test on P. berghei, N strain (in words, mice, P. berghei), the “in vivo activity compared with chloroquinine” value is recorded as “better activity than chloroquinine in vivo”. Also, the IC50 in test [2] (Strain No. 17, read-out: IC50) stood at 20 nM; in test [2] (Strain No. 265, read-out: IC50) it was 170 nM; in test [2] (Strain No. 309, read-out: IC50), 110 nM; in test [2] (Strain No. 823, read-out: IC50), 120 nM; in test [2] (Strain No. 917, read-out: IC50), 10 nM; in test [2] (Strain No. 926, read-out: IC50), 230 nM. Further, the IC50 in test [2] (Strain No. 935, read-out: IC50) amounted to 120 nM. In test [2] (in words, in vitro), the “action on the sole chloroquinine-resistant strain tested so far” value was “marked action”. For the same compound, in test [2] (in words, in vitro, compared with quinine), the “action on the inhibition of parasitemia” value was “greater action on the inhibition of parasitemia than quinine”.

For the origin of these results see US6127543A, “Antimalarial organometallic iron complexes” (Universite des Sciences et Technologies de Lille, priority 1995, dated 2000).
